According to US11572590B2, “Methods for evaluating tumor cell spheroids using 3D microfluidic cell culture device” (Dana-Farber Cancer Institute, Inc., priority 2017, dated 2023):
Like-named read-outs stand apart in the source and are kept apart here.

How the values were obtained:
off-target kinases [1] = molecular target: off-target kinases (Homo sapiens, UniProt P16591); assay: SelectScreen Kinase Profiling, single point inhibition and IC50 for off-target kinases; format: biochemical; conditions: FER, ZLYTE, ATP Km app
off-target kinases (Homo sapiens, UniProt P16591), sequence (P16591 whole entry): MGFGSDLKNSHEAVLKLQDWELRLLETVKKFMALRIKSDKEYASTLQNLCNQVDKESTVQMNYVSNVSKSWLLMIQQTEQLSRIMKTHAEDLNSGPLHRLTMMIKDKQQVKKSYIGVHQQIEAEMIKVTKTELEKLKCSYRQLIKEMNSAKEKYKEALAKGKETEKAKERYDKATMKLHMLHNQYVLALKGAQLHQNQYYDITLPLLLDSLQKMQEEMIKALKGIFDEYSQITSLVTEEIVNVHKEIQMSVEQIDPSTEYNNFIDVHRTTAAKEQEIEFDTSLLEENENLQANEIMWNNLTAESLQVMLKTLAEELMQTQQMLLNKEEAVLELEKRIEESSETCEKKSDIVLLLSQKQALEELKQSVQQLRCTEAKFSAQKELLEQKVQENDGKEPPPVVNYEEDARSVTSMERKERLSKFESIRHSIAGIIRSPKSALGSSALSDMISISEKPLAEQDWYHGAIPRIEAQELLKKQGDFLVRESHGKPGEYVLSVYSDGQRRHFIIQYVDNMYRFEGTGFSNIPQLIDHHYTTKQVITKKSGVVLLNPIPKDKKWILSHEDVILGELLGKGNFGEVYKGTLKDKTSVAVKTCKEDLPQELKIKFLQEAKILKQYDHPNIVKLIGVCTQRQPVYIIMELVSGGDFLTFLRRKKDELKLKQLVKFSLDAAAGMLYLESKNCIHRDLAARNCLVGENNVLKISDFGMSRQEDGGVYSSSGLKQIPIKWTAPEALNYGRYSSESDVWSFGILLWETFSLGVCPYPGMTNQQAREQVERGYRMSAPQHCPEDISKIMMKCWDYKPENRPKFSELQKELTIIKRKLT
Method: (§1) Biochemical single point inhibition and IC50 concentrations for TBK1, IKKε (IKBKE), and off-target kinases were determined at ThermoFisher Scientific using SelectScreen Kinase Profiling Services (Madison, Wis., USA) (Tables S4A and S4B-1-7). To determine cellular potency, the human colorectal cancer carcinoma cell line HCT116 (ATCC, Manassas, Va.) was maintained in T175 flasks in complete RPMI medium; RPMI 1640 supplemented with 10% FBS, 1× Penicillin-Streptomycin solution and 1×MEM (non-essential amino acids). HCT116 cells were grown to 90-95% confluency in T175 flasks containing complete RPMI medium and transfected in bulk using Lipofectamine 2000 (Invitrogen, Carlsbad, Calif.) with 70 μg of ISG54-luciferase reporter plasmid (Elim Biopharmaceuticals Inc., Hayward, Calif.). The reporter plasmid contains a luciferase gene expression cassette under the transcriptional regulation of the promoter of the human interferon stimulated gene 54 (ISG54). Transfection of the cells was allowed to take place for 6 hours, after which the cells were harvested by treatment with 0.25% trypsin EDTA (Corning Inc., Corning, N.Y.). Trypsinized cells were added to 384-well poly-d-lysine treated black clear bottom tissue culture assay plates (Greiner Bio-One GmbH, Kremsmünster, Austria) at a density of 20,000 cells/well in 80 μL of complete RPMI medium and incubated overnight. After 16-18 hours post-transfection, the assay plates were washed with PBS (Corning Inc., Corning, N.Y.), followed by addition of 80 μL/well of serum-free RPMI 1640 medium containing 1× Penicillin-Streptomycin solution, 1×MEM and 350 nL of DMSO or titrations of Compound 1. Compound 1 titrations were generated by 1.5-fold dilution steps in two overlapping serial dilution series to generate a 40-point compound dose range. After incubation at 37° C. for 1 hour, the cells were stimulated with Poly(I:C) (InvivoGen, San Diego, Calif.) at a final concentration of 15 μg/mL in Optimem media (Life Technologies, Rockville, Md.). The assay plates were incubated for 5 hours at 37° C., followed by addition of One-Glo luciferase firefly reagent (Promega, Madison, Wis.) at 1:1 volume/well and luminescence was measured in an EnVision Multilabel Plate Reader (PerkinElmer, Santa Clara, Calif.). The EC50 values were calculated from the fit of the dose-response curves to a four-parameter equation. All EC50 values represent geometric mean values of a minimum of four determinations.

off-target kinases [2] = molecular target: off-target kinases (Homo sapiens, UniProt P31749); assay: as above; format: biochemical; conditions: AKT1 (PKB alpha), ZLYTE, ATP Km app
off-target kinases (Homo sapiens, UniProt P31749), sequence (P31749 whole entry): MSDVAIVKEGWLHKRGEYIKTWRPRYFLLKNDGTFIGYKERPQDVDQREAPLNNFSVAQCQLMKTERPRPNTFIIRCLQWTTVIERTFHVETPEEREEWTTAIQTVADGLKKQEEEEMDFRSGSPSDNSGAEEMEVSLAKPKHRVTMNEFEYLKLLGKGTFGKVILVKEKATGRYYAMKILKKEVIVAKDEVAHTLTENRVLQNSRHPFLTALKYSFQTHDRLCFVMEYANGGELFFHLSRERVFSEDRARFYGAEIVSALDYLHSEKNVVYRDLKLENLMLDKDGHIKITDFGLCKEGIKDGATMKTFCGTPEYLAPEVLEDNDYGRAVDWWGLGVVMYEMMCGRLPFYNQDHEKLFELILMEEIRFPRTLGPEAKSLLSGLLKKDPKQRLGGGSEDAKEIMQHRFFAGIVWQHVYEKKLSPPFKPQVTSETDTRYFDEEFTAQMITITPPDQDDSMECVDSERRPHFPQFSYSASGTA
Method: as §1

off-target kinases [3] = molecular target: T1, off-target kinases (Homo sapiens, UniProt Q16566); assay: as above; format: biochemical
T1 sequence (Q16566 1-473): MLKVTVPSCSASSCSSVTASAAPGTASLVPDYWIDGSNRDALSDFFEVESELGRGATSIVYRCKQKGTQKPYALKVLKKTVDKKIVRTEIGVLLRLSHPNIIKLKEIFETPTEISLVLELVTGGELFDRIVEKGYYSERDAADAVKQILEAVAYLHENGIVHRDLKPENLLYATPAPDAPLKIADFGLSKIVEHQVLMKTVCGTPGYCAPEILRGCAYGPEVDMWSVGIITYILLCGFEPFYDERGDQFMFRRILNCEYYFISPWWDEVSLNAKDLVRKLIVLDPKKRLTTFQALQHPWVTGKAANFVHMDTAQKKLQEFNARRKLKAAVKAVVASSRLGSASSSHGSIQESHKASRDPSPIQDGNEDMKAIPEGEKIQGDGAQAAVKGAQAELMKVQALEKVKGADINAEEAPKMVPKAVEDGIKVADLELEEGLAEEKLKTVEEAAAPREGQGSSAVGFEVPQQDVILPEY
Method: as §1

off-target kinases [4] = molecular target: T2, off-target kinases (Homo sapiens, UniProt Q16832, N456S); assay: as above; format: biochemical; conditions: DDR2 N456S, mutant y, LanthaScreen Binding
T2 sequence (Q16832 22-855 N456S): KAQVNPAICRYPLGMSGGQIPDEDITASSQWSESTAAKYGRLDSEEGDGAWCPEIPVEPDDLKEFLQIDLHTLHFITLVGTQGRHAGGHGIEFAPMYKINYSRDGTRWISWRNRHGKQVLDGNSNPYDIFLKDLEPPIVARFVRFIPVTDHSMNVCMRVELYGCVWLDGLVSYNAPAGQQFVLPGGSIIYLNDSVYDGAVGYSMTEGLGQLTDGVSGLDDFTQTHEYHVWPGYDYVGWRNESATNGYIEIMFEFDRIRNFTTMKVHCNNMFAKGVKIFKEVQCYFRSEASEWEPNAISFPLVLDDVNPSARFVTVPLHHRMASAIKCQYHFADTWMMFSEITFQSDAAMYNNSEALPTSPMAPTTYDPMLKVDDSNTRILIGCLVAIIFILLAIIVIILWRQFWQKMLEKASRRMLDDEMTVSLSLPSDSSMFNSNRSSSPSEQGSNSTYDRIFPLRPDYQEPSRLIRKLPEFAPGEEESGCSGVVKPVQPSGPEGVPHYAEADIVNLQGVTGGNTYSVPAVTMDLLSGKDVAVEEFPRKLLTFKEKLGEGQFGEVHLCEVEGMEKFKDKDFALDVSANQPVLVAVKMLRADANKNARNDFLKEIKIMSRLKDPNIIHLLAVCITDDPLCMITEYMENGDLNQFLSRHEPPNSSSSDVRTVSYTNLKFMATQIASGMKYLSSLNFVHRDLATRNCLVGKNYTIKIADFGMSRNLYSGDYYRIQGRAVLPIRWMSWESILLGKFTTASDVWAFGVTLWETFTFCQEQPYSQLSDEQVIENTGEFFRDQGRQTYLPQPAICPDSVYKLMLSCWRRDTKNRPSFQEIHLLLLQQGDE
Method: as §1

off-target kinases [5] = molecular target: off-target kinases (Homo sapiens, UniProt Q96SB4); assay: as above; format: biochemical; conditions: SRPK1, ZLYTE, ATP Km app
off-target kinases (Homo sapiens, UniProt Q96SB4), sequence (Q96SB4 whole entry): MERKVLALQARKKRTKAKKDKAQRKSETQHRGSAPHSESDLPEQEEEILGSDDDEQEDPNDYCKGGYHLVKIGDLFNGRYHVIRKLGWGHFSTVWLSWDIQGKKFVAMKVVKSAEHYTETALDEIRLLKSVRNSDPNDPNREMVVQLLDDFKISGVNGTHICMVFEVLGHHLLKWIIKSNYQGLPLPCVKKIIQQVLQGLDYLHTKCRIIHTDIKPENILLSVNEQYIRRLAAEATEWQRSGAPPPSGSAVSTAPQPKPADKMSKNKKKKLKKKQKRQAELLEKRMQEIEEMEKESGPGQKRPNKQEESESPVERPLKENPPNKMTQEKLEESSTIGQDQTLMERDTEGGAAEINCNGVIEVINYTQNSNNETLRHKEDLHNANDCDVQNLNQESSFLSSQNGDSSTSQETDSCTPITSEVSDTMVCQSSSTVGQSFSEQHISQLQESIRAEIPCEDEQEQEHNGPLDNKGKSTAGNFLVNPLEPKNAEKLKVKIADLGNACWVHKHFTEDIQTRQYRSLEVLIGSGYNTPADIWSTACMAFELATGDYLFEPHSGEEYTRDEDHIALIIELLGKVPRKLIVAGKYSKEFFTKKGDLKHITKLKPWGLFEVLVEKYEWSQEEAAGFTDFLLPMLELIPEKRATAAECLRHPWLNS
Method: as §1

MC38 allograft = assay: MC38 allograft, Compound 1 and anti-PD-L1 combination in vivo; design: species or system mouse; conditions: Cmpd1 + αPD-L1; did not reach significance vs single-agent PD-L1

`N#Cc1cc(-c2ncnc(Nc3ccc(N4CCN(C5COC5)CC4)cc3)n2)ccc1OC1CCOCC1` [Compound 1, 5-(4-((4-(4-(oxetan-3-yl)piperazin-1-yl)phenyl)amino)-1,3,5-triazin-2-yl)-2-((tetrahydro-2H-pyran-4-yl)oxy)benzonitrile] showed an inhibition (off-target kinases [1]; read-out: % Inhibition 1) of 4%, an inhibition (off-target kinases [1]; read-out: % Inhibition 2) of 9% and an inhibition (off-target kinases [1]; read-out: % Inhibition Avg) of 7%. It also gave an inhibition (off-target kinases [2]; read-out: % Inhibition 1) of 1%, an inhibition (off-target kinases [2]; read-out: % Inhibition 2) of 3% and an inhibition (off-target kinases [2]; read-out: % Inhibition Avg) of 2%. For the same compound, the inhibition (off-target kinases [3]; CAMK4 (CaMKIV), ZLYTE, ATP Km app, read-out: % Inhibition 2) was -2%, the inhibition (off-target kinases [3]; CAMK4 (CaMKIV), ZLYTE, ATP Km app, read-out: % Inhibition Avg) was -2% and the inhibition (off-target kinases [3]; read-out: % Inhibition 1) was -2%. It also gave an inhibition (off-target kinases [4]; read-out: % Inhibition 1) of 33%, an inhibition (off-target kinases [4]; read-out: % Inhibition 2) of 42% and an inhibition (off-target kinases [4]; read-out: % Inhibition Avg) of 37%. For the same compound, the inhibition (off-target kinases [5]; read-out: % Inhibition 1) was -1%, the inhibition (off-target kinases [5]; read-out: % Inhibition 2) was -2% and the inhibition (off-target kinases [5]; read-out: % Inhibition Avg) was -2%. The “in vivo survival, MC38 model, combination treatment” value (MC38 allograft) was “enhanced”.
